Experimental findings from ChEMBL document CHEMBL1201862, “PubChem BioAssay data set” (2004) are described below.

Common to all, as to assay: growth of human tumour cells (NCI), 48 h
Assay [1] has as its system A498.
Assay [2] has as its system A549.
In assay [3] the test system is ACHN.
Assay [4] concerns CCRF-CEM.
For assay [5], the system named is COLO 205.
Assay [6] has as its system HCT-116.
Assay [7] deals with HCT-15.
For assay [8], the system named is KM12.
Assay [9] relates to MCF7.
Assay [10] concerns Malme-3M.
Assay [11] relates to NCI-H23.
Assay [12] deals with NCI-H460.
The subject of assay [13] is NCI/ADR-RES.
In assay [14] the test system is PC-3.
Assay [15] relates to SK-MEL-2.
In assay [16] the test system is SK-MEL-5.
Assay [17] relates to SK-OV-3.
Assay [18] relates to TK-10.
The test system of assay [19] is UACC-62.
The subject of assay [20] is NCI-H522.

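Protocol summary: plate cells (96-well), add compound at 5 concentrations, incubate 48 h, interpolate endpoints linearly. GI50 marks 50% less growth.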 Calls of active or inactive are those of the source. No stated cut-off is given here; in the data, active = GI50 up to about 1.1 µM and inactive = higher. Where only a bound is given, the exact number is not on record here.

In the case of `Nc1ccc(/N=N/c2ccccc2)cc1`, the GI50 was 46.8 µM (inactive) in [1]; 32.6 µM (inactive) in assay [2]; 30.3 µM (inactive) in assay [3]; 6.41 µM (inactive) in assay [4]; 46.1 µM (inactive) in assay [5]; 54.6 µM (inactive) in assay [6]. For the same molecule, the GI50 in assay [7] is 41.2 µM; in assay [8], 23.8 µM (inactive); in [9], 30.5 µM (inactive); in assay [10], 75.9 µM (inactive); in assay [11], 61.5 µM (inactive); in [12], 29.1 µM (inactive). The GI50 in [13] was 34.8 µM (inactive); in assay [14], 56.8 µM (inactive); in assay [15], 22.6 µM (inactive); in assay [16] it was 53.5 µM (inactive); in [17], > 100 µM (inactive); in [18], 47.9 µM (inactive). Moreover, the GI50 in [19] was 27.4 µM (inactive).
Turning to `Cc1nc(N)c(N2CCN(Cc3ccccc3)CC2)c(O)n1`, the GI50 in assay [1], in assay [2], in assay [3], in [4], in [5] and in [6] was > 100 µM (inactive) throughout. Also, the GI50 in assay [7] was over 100 µM; in assay [8], > 100 µM (inactive); in assay [9], > 100 µM (inactive); in [10] it was > 100 µM (inactive); in assay [11], > 100 µM (inactive); in [12] it was > 100 µM (inactive). The GI50 in [20], in assay [13], in assay [14], in assay [15] and in assay [18] was > 100 µM (inactive) each time.
In the case of `Cc1nc(C)c(N2CCN(CN)CC2)c(O)n1`, the GI50 in assay [1], in [2], in assay [3], in assay [4], in [5] and in assay [6] was > 100 µM (inactive) in each case. The GI50 in [7] is over 100 µM; in assay [8], > 100 µM (inactive); in [9], > 100 µM (inactive); in [10], > 100 µM (inactive); in assay [11], > 100 µM (inactive); in [12], > 100 µM (inactive). Further, the GI50 in assay [20], in [13], in assay [14], in [16], in assay [17] and in assay [18] was > 100 µM (inactive) each time. Further, the GI50 in assay [19] is > 100 µM (inactive).
As for `Cn1c(-c2cccs2)cc(-c2ccsc2)c1-c1cccs1`, the GI50 in assay [1] is > 100 µM (inactive); in [2], > 100 µM (inactive); in assay [3] it was 61.1 µM (inactive); in assay [4], > 100 µM (inactive); in [5], 17.3 µM (inactive); in assay [6], 16.3 µM (inactive). In addition, the GI50 in [7] was 88.9 µM; in assay [8], > 100 µM (inactive); in assay [9] it was 5.97 µM (inactive); in assay [10], > 100 µM (inactive); in assay [11], 45.9 µM (inactive); in assay [12], 48.1 µM (inactive). Moreover, the GI50 is 72.8 µM (inactive) in [20]; > 100 µM (inactive) in assay [13]; > 100 µM (inactive) in assay [14]; > 10 µM (inactive) in [16]; > 100 µM (inactive) in assay [17]; > 100 µM (inactive) in [18]. The GI50 in [19] was 42.6 µM (inactive).
`COc1cc(S(=O)(=O)Nc2ccc(-c3csc(N4C(=O)C(Cl)C4c4cccs4)n3)cc2)ccc1Cl` (stereo not given): the GI50 in assay [1] was > 100 µM (inactive); in assay [2] it was > 100 µM (inactive); in assay [3], > 100 µM (inactive); in [4], 4.1 µM (inactive); in [5], 31.7 µM (inactive); in assay [6], 98.9 µM (inactive). For the same molecule, the GI50 in [7] was over 100 µM; in assay [8] it was 49.2 µM (inactive); in assay [9] it was 29.5 µM (inactive); in assay [10] it was > 100 µM (inactive); in assay [11], 29.4 µM (inactive); in assay [12], 71.6 µM (inactive). For the same molecule, the GI50 is 4.35 µM (inactive) in assay [20]; > 100 µM (inactive) in [13]; > 100 µM (inactive) in assay [14]; > 100 µM (inactive) in assay [15]; 93.8 µM (inactive) in assay [16]; > 100 µM (inactive) in [17]. Also, the GI50 in assay [19] was 22.2 µM (inactive).
As to `O=C1Nc2ccc([N+](=O)[O-])cc2/C1=N/NC(=S)Nc1ccccc1`, the GI50 in assay [1] is 3.56 µM (inactive); in [2], 5.05 µM (inactive); in assay [3] it was 3.23 µM (inactive); in assay [4] it was 2.16 µM (inactive); in assay [5], 11.7 µM (inactive); in assay [6], 4.05 µM (inactive). In addition, the GI50 is 3.03 µM in assay [7]; 8.41 µM (inactive) in assay [8]; 4.41 µM (inactive) in [9]; 9.33 µM (inactive) in assay [11]; 3.61 µM (inactive) in assay [12]; 2.47 µM (inactive) in assay [13]. Further, the GI50 in assay [14] was 5.5 µM (inactive); in [15] it was 11.9 µM (inactive); in assay [16] it was 2.9 µM (inactive); in [17] it was 14 µM (inactive); in [18] it was 6.11 µM (inactive); in assay [19], 11 µM (inactive).
On to `COc1ccc2[nH]c3c(C)c4ccnc(NCCCN(C)CCCNc5ccc6nnn7c8ccccc8c(=O)c5c67)c4c(C)c3c2c1`, for which the GI50 in assay [1] is 1.35 µM (inactive); in [2], 0.0395 µM (active); in assay [3], 0.0773 µM (active); in assay [4], 0.0047 µM (active); in assay [5], 0.367 µM (active); in assay [6], 0.0217 µM (active). Further, the GI50 in assay [7] was 0.114 µM; in [8] it was 0.432 µM (active); in [9] it was 0.0561 µM (active); in assay [11], 0.745 µM (active); in assay [12], 0.0399 µM (active); in assay [20], 0.107 µM (active). Moreover, the GI50 is 0.982 µM (active) in assay [13]; 0.597 µM (active) in assay [14]; > 10 µM (inactive) in assay [15]; 2.64 µM (inactive) in [17]; 1.07 µM (active) in assay [18]; > 10 µM (inactive) in assay [19].
Take `CC(C)(C)OC(=O)N(CCCCNC(=O)OCc1ccccc1)CCCNC(=O)OCc1ccccc1`: the GI50 in [1] is 21.8 µM (inactive); in [2], 9.71 µM (inactive); in assay [3], 9.86 µM (inactive); in [4], 16.3 µM (inactive); in [5], 16.5 µM (inactive); in [6], 41.8 µM (inactive). The GI50 is over 100 µM in assay [7]; 35.5 µM (inactive) in [8]; 33.3 µM (inactive) in [9]; 21.6 µM (inactive) in assay [11]; 38.2 µM (inactive) in [12]; 4.06 µM (inactive) in [20]. The GI50 in assay [13] was 8.59 µM (inactive); in [14] it was 10.7 µM (inactive); in assay [15], 55.7 µM (inactive); in [16], 5.93 µM (inactive); in assay [17], > 100 µM (inactive); in assay [18], > 100 µM (inactive). The GI50 in assay [19] was 87.9 µM (inactive).
For `Cc1cn(C2CC(OC(c3ccccc3)(c3ccccc3)c3ccccc3)C(COC(c3ccccc3)(c3ccccc3)c3ccccc3)O2)c(=O)[nH]c1=O` (stereo not given), the GI50 in assay [1] was 25.4 µM (inactive); in [2], 34.3 µM (inactive); in assay [3], 68.4 µM (inactive); in assay [4], > 100 µM (inactive); in assay [5], > 100 µM (inactive); in assay [6] it was 17.1 µM (inactive). For the same molecule, the GI50 is 59.2 µM in assay [7]; 31.3 µM (inactive) in assay [8]; 19 µM (inactive) in assay [9]; 68.7 µM (inactive) in assay [10]; 57.8 µM (inactive) in [12]; > 100 µM (inactive) in [13]. The GI50 is 16 µM (inactive) in assay [14]; 23.7 µM (inactive) in assay [15]; 43.3 µM (inactive) in [16]; > 100 µM (inactive) in [17]; 42.5 µM (inactive) in assay [18]; > 100 µM (inactive) in assay [19].
Take `CC(CO)CCNc1ncnc2c1ncn2CCC(=O)OC(C)(C)C` (stereo not given): the GI50 in assay [1], in assay [2], in [3], in assay [4], in assay [5] and in assay [6] was > 100 µM (inactive) in each case. For the same molecule, the GI50 in assay [8], in assay [9], in assay [10], in assay [11], in assay [12] and in assay [20] was > 100 µM (inactive) each time. Moreover, the GI50 in [13], in assay [14], in [16], in assay [17], in assay [18] and in assay [19] was > 100 µM (inactive) each time.
Consider `COc1ccccc1-c1nc[nH]c1-c1ccccc1OC`, for which the GI50 in assay [1] was 27.7 µM (inactive); in assay [2], 22.6 µM (inactive); in [3], 35.9 µM (inactive); in assay [6] it was 31.8 µM (inactive); in assay [7], 35 µM; in assay [8], 2.45 µM (inactive). For the same molecule, the GI50 is 24.8 µM (inactive) in assay [9]; 11.2 µM (inactive) in assay [10]; 27.4 µM (inactive) in assay [11]; 24.3 µM (inactive) in assay [12]; 13.2 µM (inactive) in assay [20]; 22 µM (inactive) in assay [13]. For the same molecule, the GI50 is 18.6 µM (inactive) in [14], 28.5 µM (inactive) in assay [15], 36.1 µM (inactive) in assay [17] and 22.5 µM (inactive) in [18].
